Assay results: ChEMBL document CHEMBL5244267, “A brief overview on recent advances in spiro[chromane-2,4'-piperidine]-4(3H)-one-functionalized compounds in medicinal chemistry research” (Bioorg Med Chem, 2020)
≈ marks a conversion by molar mass, not a printed value. Each block holds one compound with its values, some of them ahead of it.

How the values were obtained:
[1] = Antioxidant activity assessed as DPPH free radical scavenging activity at 500 microg/ml; type: functional
Carbonic anhydrase 9 = Carbonic anhydrase 9 (Homo sapiens, UniProt Q16790); experiment: Binding affinity to human CA9 assessed as inhibition constant
[2] = Antioxidant activity assessed as DPPH radical scavenging activity at 100 uM/ml; type: functional
[3] = Antioxidant activity assessed as H2O2 radical scavenging activity; type: functional
A2780 = experiment: Anticancer activity against human A2780 cells assessed as inhibition of cell proliferation measured after 48 hrs by MTT assay; type: functional, cell-based; settings: A2780, 48 h
MCF7 = experiment: Anticancer activity against human MCF7 cells assessed as inhibition of cell proliferation measured after 48 hrs by MTT assay; type: functional, cell-based; settings: MCF7, 48 h
HT-29 = experiment: Anticancer activity against human HT-29 cells assessed as inhibition of cell proliferation measured after 48 hrs by MTT assay; type: functional, cell-based; settings: HT-29, 48 h
Erythrocyte = experiment: Anti-inflammatory activity in human red blood cells assessed as protection of cell membrane at 100 ug/mL relative to control; type: functional; settings: dose 100 µg/ml
[4] = Lipophilicity, logP of the compound; type: physicochemical; settings: octanol/water
[5] = Aqueous solubility of the compound at pH 5.0; type: physicochemical; settings: buffer
Plasmodium falciparum = experiment: Antiplasmodial activity against chloroquine-resistant Plasmodium falciparum Dd2 in HepG2 cells; type: functional, organism-based
HepG2 = experiment: Antiproliferative activity against human HepG2 cells assessed as reduction in cell viability after 24 hrs by MTT assay; type: functional, cell-based; settings: HepG2, 24 h
[6] = Aqueous solubility of the compound at pH 6.2; type: physicochemical; settings: buffer
[7] = Half life in CD1 mouse at 3 mg/kg, iv; type: ADME, organism-based; settings: in vivo
[8] = AUC (0 to infinity) in CD1 mouse at 10 mg/kg, iv administered as single dose by UPLC analysis; type: ADME, organism-based; design: dose 10 mg/kg, route iv; settings: in vivo
[9] = Volume of distribution in CD-1 mouse at 10 mg/kg iv measured by UPLC-MS/MS method; type: ADME, organism-based; settings: in vivo
[10] = AUC in CD1 mouse at 10 mg/kg, iv administered as single dose by UPLC analysis; type: ADME, organism-based; design: dose 10 mg/kg, route iv; settings: in vivo
[11] = Cmax in CD1 mouse at 0.5 mg/kg, iv; type: ADME, organism-based; design: dose 0.5 mg/kg, route iv; settings: in vivo
[12] = Clearance in CD-1 mouse at 10 mg/kg iv measured by UPLC-MS/MS method; type: ADME, organism-based; settings: in vivo
[13] = target: Acetyl-CoA carboxylase 1 (Rattus norvegicus) (UniProt P11497); experiment: In vivo inhibition of ACC1 in Sprague-Dawley rat assessed as reduction in malonyl-CoA in liver; type: functional
[14] = target: Acetyl-CoA carboxylase 1 (Rattus norvegicus) (UniProt P11497); experiment: In vivo inhibition of ACC1 in Sprague-Dawley rat assessed as reduction in malonyl-CoA in liver at […] relative to control; type: functional
[15] = In vivo inhibition of ACC2 in Sprague-Dawley rat assessed as reduction in malonyl-CoA in quadriceps; type: functional
[16] = In vivo inhibition of ACC2 in Sprague-Dawley rat assessed as reduction in malonyl-CoA in quadriceps at […] relative to control; type: functional

Compound: CC(=O)N1CCC2(CC1)CC(=O)c1cc(C(=O)/C=C3\C(=O)Nc4ccccc43)c(O)cc1O2
- IC50 [1]: 47.7 µM

Compound: CC(C)(C)OCC(=O)CN1CCC2(CC1)CC(=O)c1cc(C(=O)/C=C3\C(=O)Nc4ccccc43)c(O)cc1O2
- IC50 [1]: 6.85 µM

Compound: O=C1O[C@H]([C@@H](O)CO)C(O)=C1O [ASCORBIC ACID]
- IC50 ([2]; read-out: IC50): 8.64 µM
- IC50 [1]: 8.64 µM

Compound: O=C1Nc2ccccc2/C1=C/C(=O)c1cc2c(cc1O)OC1(CCN(Cc3ccccc3)CC1)CC2=O
- IC50 [1]: 8.12 µM

Compound: O=C1Nc2ccc(Br)cc2/C1=C/C(=O)c1cc2c(cc1O)OC1(CCN(Cc3ccccc3)CC1)CC2=O
- IC50 [1]: 12.7 µM

Compound: CCOC(=O)N1CCC2(CC1)CC(=O)c1cc(C(=O)/C=C3\C(=O)Nc4ccc(Br)cc43)c(O)cc1O2
- IC50 [1]: 48.5 µM

Compound: Cc1c(C(=O)c2ccc(-c3ccccc3)cc2)oc2cc3c(cc12)C(=O)CC1(CCN(CC(=O)OC(C)(C)C)CC1)O3
- IC50 [2]: 63.92 µg/mL
- IC50 [3]: 44.73 µg/mL (≈ 79.1 µM)

Compound: CC(=O)N1CCC2(CC1)CC(=O)c1cc(C(=O)/C=C3\C(=O)Nc4ccc(Br)cc43)c(O)cc1O2
- IC50 [1]: 58.6 µM

Compound: CCOC(=O)N1CCC2(CC1)CC(=O)c1cc(C(=O)/C=C3\C(=O)Nc4ccccc43)c(O)cc1O2
- IC50 [1]: 1.74 µM

Compound: CN1CCC2(CC1)CC(=O)c1c(ccc3c1CCC(C)(C)O3)O2
- Activity (Erythrocyte): 64.72%
- IC50 ([2]; read-out: IC50): 6.59 µM

Compound: CC(C)(C)OCC(=O)CN1CCC2(CC1)CC(=O)c1cc(C(=O)/C=C3\C(=O)Nc4ccc(Br)cc43)c(O)cc1O2
- IC50 [1]: 56.3 µM

Compound: O=C1CC2(CCN(C(=O)C34CC5CC(CC(C5)C3)C4)CC2)Oc2ccccc21
- IC50 (A2780): 22.7 µM
- IC50 (MCF7): 23.9 µM
- IC50 (HT-29): 8.46 µM

Compound: CC(=O)N1CCC2(CC1)CC(=O)c1c(ccc3c1CCC(C)(C)O3)O2
- Activity (Erythrocyte): 56.1%
- IC50 ([2]; read-out: IC50): 6.59 µM

Compound: OC(CN1CCC2(CC1)CC(O)c1ccc3ccccc3c1O2)c1ccc(F)c(F)c1 (stereo unspecified)
- logP [4]: 3.85
- solubility [5]: > 42 µg/mL
- EC50 (Plasmodium falciparum): 0.35 µM
- EC50 (HepG2): 19 µM
- solubility [6]: > 42 µg/mL

Compound: O=C(/C=C/c1ccc2c(c1)C(=O)CC1(CCN(CCc3ccccc3)CC1)O2)NO
- half-life [7]: 9.1 h
- AUC ([8]; mouse): 1042 ng·h/mL
- Vd [9]: 8.6 L/kg
- AUC [10]: 1600 ng·h/mL
- Cmax [11]: 2490 nM
- CL ([12]; mouse, iv, 10 mg/kg): 79.8 mL/min/kg

Compound: CC(C)(C)n1cc2c(n1)C(=O)CC1(CCN(C(=O)c3ccc4[nH]ncc4c3)CC1)O2
- ED50 [13]: 1.6 mg/kg
- inhibition [14]: 75%
- ED50 [15]: 2.6 mg/kg
- inhibition (INH) [16]: 78%

Compound: O=C(/C=C/c1ccc2c(c1)C(=O)CC1(CCN(Cc3ccc(F)cc3)CC1)O2)NO
- half-life [7]: 13 h
- AUC(0-inf) ([8]; CD1, mouse): 1490 ng·h/mL
- Vd [9]: 5.9 L/kg
- AUC [10]: 1240 ng·h/mL
- Cmax [11]: 1830 nM
- clearance ([12]; CD-1, mouse): 55.8 mL/min/kg

Compound: CC(=O)N1CCC2(CC1)CC(=O)c1cc3c(cc1O2)CCC(C)(C)O3
- Activity (Erythrocyte): 23.07%
- IC50 ([2]; read-out: IC50): 5.32 µM

Compound: COc1cc(C(=O)N2CCC3(CC2)CC(=O)c2ccccc2O3)cc(OC)c1OC
- IC50 (A2780): 18.8 µM
- IC50 (MCF7): 47.1 µM
- IC50 (HT-29): 23.2 µM

The next lines start with the values.

- Ki (Carbonic anhydrase 9): 3.75 µM
Compound: NS(=O)(=O)c1ccc(N2CCC3(CC2)CC(=O)c2cc(OCCO)ccc2O3)c([N+](=O)[O-])c1

- Ki (Carbonic anhydrase 9): 4.34 µM
Compound: COCCOc1ccc2c(c1)C(=O)CC1(CCN(c3ccc(S(N)(=O)=O)cc3[N+](=O)[O-])CC1)O2

- Ki (Carbonic anhydrase 9): 0.229 µM
Compound: NS(=O)(=O)c1ccc(N2CCC3(CC2)CC(=O)c2ccccc2O3)c([N+](=O)[O-])c1

- Ki (Carbonic anhydrase 9): 2.84 µM
Compound: CCOc1ccc2c(c1)C(=O)CC1(CCN(c3ccc(S(N)(=O)=O)cc3[N+](=O)[O-])CC1)O2

- Ki (Carbonic anhydrase 9): 1.24 µM
Compound: CCCOc1ccc2c(c1)C(=O)CC1(CCN(c3ccc(S(N)(=O)=O)cc3[N+](=O)[O-])CC1)O2

- Ki (Carbonic anhydrase 9): 3.3 µM
Compound: CC(C)Oc1ccc2c(c1)C(=O)CC1(CCN(c3ccc(S(N)(=O)=O)cc3[N+](=O)[O-])CC1)O2

- IC50 (A2780): 1.79 µM
- IC50 (MCF7): 6.78 µM
- IC50 (HT-29): 16 µM
Compound: Cc1ccc(S(=O)(=O)N2CCC3(CC2)CC(=O)c2ccccc2O3)cc1

- Ki (Carbonic anhydrase 9): 0.0454 µM
Compound: COCCOc1ccc2c(c1)OC1(CCN(c3ccc(S(N)(=O)=O)cc3[N+](=O)[O-])CC1)CC2=O

- Ki (Carbonic anhydrase 9): 2.65 µM
Compound: CCOc1ccc2c(c1)OC1(CCN(c3ccc(S(N)(=O)=O)cc3[N+](=O)[O-])CC1)CC2=O

- Ki (Carbonic anhydrase 9): 0.199 µM
Compound: NS(=O)(=O)c1ccc(N2CCC3(CC2)CC(=O)c2cc(Br)ccc2O3)c([N+](=O)[O-])c1

- Ki (Carbonic anhydrase 9): 4.41 µM
Compound: NS(=O)(=O)c1ccc(N2CCC3(CC2)CC(=O)c2ccc(O)cc2O3)c([N+](=O)[O-])c1

- Ki (Carbonic anhydrase 9): 3.55 µM
Compound: Cc1ccc2c(c1)C(=O)CC1(CCN(c3ccc(S(N)(=O)=O)cc3[N+](=O)[O-])CC1)O2

- Ki (Carbonic anhydrase 9): 1.47 µM
Compound: NS(=O)(=O)c1ccc(N2CCC3(CC2)CC(=O)c2ccc(Br)cc2O3)c([N+](=O)[O-])c1

- Ki (Carbonic anhydrase 9): 4.15 µM
Compound: CCCOc1ccc2c(c1)OC1(CCN(c3ccc(S(N)(=O)=O)cc3[N+](=O)[O-])CC1)CC2=O

- Ki (Carbonic anhydrase 9): 1.56 µM
Compound: COc1ccc2c(c1)C(=O)CC1(CCN(c3ccc(S(N)(=O)=O)cc3[N+](=O)[O-])CC1)O2

- Ki (Carbonic anhydrase 9): 2.75 µM
Compound: COc1ccc2c(c1)OC1(CCN(c3ccc(S(N)(=O)=O)cc3[N+](=O)[O-])CC1)CC2=O

- Ki (Carbonic anhydrase 9): 4.08 µM
Compound: CC(=O)Oc1ccc2c(c1)C(=O)CC1(CCN(c3ccc(S(N)(=O)=O)cc3[N+](=O)[O-])CC1)O2

- Ki (Carbonic anhydrase 9): 0.0465 µM
Compound: NS(=O)(=O)c1ccc(N2CCC3(CC2)CC(=O)c2ccc(OCCO)cc2O3)c([N+](=O)[O-])c1

- Ki (Carbonic anhydrase 9): 0.0346 µM
Compound: CC(C)Oc1ccc2c(c1)OC1(CCN(c3ccc(S(N)(=O)=O)cc3[N+](=O)[O-])CC1)CC2=O
